Legend:
human S1P1 receptor = molecular target: T1, human S1P1 receptor (Homo sapiens, UniProt P21453); experiment: GTP γ35S binding assay for S1P1 activity; format: biochemical; conditions: for activation at 5 µM: S1P1 receptor GTPγ^35S, read-out: % STIMULATION @ 5 μM; for EC50: S1P1 receptor, membranes, compounds 0.08 to 5,000 nM, read-out: GTPγ^35S EC50
T1 construct: expressed in transfected cells; membranes used
Protocol: Novel compounds were synthesized and tested for S1P1 activity using the GTP γ^35S binding assay. These compounds may be assessed for their ability to activate or block activation of the human S1P1 receptor in cells stably expressing the S1P1 receptor. GTP γ^35S binding was measured in the medium containing (mM) HEPES 25, pH 7.4, MgCl2 10, NaCl 100, dithitothreitol 0.5, digitonin 0.003%, 0.2 nM GTP γ^35S, and 5 μg membrane protein in a volume of 150 μl. Test compounds were included in the concentration range from 0.08 to 5,000 nM unless indicated otherwise. Membranes were incubated with 100 μM 5′-adenylylimmidodiphosphate for 30 min, and subsequently with 10 μM GDP for 10 min on ice. Drug solutions and membrane were mixed, and then reactions were initiated by adding GTP γ^35S and continued for 30 min at 25° C. Reaction mixtures were filtered over Whatman GF/B filters under vacuum, and washed three times with 3 mL of ice-cold buffer (HEPES 25, pH7.4, MgCl2 10 and NaCl 100). Filters were dried and mixed with scintillant, and counted for ^35S activity using a […]. Agonist-induced GTP γ^35S binding was obtained by subtracting that in the absence of agonist. Binding data were analyzed using a non-linear regression method. In case of antagonist assay, the reaction mixture contained 10 nM S1P in the presence of test antagonist at concentrations ranging from 0.08 to 5000 nM.
Activity potency: S1P1 receptor from GTP γ^35S: nM, (EC50)

lymphocytes in blood = experiment: Lymphopenia assay in mice (in vivo blood lymphocyte depletion); conditions: female C57BL6 mice, 10 mg/Kg subcutaneous
Protocol: Test drugs are prepared in a solution containing 3% (w/v) 2-hydroxy propyl β-cyclodextrin (HPBCD) and 1% DMSO to a final concentration of 1 mg/ml, and subcutaneously injected to female C57BL6 mice (CHARLES RIVERS) weighing 20-25 g at the dose of 10 mg/Kg. Blood samples are obtained by puncturing the submandibular skin with a Goldenrod animal lancet at 5, 24, 48, 72, and 96 hrs post drug application. Blood is collected into microvettes (SARSTEDT) containing EDTA tripotassium salt. Lymphocytes in blood samples are counted using a HEMAVET Multispecies Hematology System, HEMAVET HV950FS (Drew Scientific Inc.). (Hale, J. et al Bioorg. & Med. Chem. Lett. 14 (2004) 3351).
A lymphopenia assay in mice; as previously described, was employed to measure the in vivo blood lymphocyte depletion after dosing with: • (3-{[5-(4-Hexyl-phenyl)-6-thiophen-2-yl-pyridin-2-ylmethyl]-amino}-propyl)-phosphonic acid, Compound 2 (FIG. 1); • (3-{[6-(5-Fluoro-thiophen-2-yl)-5-(4-hexyl-phenyl)-pyridin-2-ylmethyl]-amino}-propyl)-phosphonic acid, Compound 3 (FIG. 2); • (3-{[5-(4-Hexyl-3-propyl-phenyl)-6-thiophen-2-yl-pyridin-2-ylmethyl]-amino}-propyl)-phosphonic acid, Compound 4 (FIG. 3); • [3-({5-[4-(3-Phenyl-propyl)-phenyl]-6-thiophen-2-yl-pyridin-2-ylmethyl}-amino)-propyl]-phosphonic acid, Compound 5 (FIG. 4); • (3-{[5-(4-Hexyl-phenyl)-6-thiophen-3-yl-pyridin-2-ylmethyl]-amino}-propyl)-phosphonic acid, Compound 6 (FIG. 5); • (3-{[5-(4-Hexyl-phenyl)-6-oxazol-4-yl-pyridin-2-ylmethyl]-amino}-propyl)-phosphonic acid, Compound 7 (FIG. 6); • (3-{[6-Furan-2-yl-5-(4-hexyl-phenyl)-pyridin-2-ylmethyl]-amino}-propyl)-phosphonic acid, Compound 9 (FIG. 7); • [3-({6-Phenyl-5-[4-(3-phenyl-propyl)-phenyl]-pyridin-2-ylmethyl}-amino)-propyl]-phosphonic acid, Compound 14 (FIGS. 8) and • (3-{[5-(4-Hexyl-3-propyl-phenyl)-6-phenyl-pyridin-2-ylmethyl]-amino}-propyl)-phosphonic acid, Compound 16 (FIG. 9).
These S1P agonist (or modulator) is useful for S1P-related diseases, and exemplified by the lymphopenia in vivo response. In general, test drugs Compound 3 and 16 were prepared in a solution containing 3% (w/v) 2-hydroxy propyl β-cyclodextrin (HPBCD) and 1% DMSO to a final concentration of 1 mg/ml, and subcutaneously injected to female C57BL6 mice (CHARLES RIVERS) weighing 20-25 g at the dose of 10 mg/Kg. Blood samples were obtained by puncturing the submandibular skin with a Goldenrod animal lancet at 5, 24, 48, and 72 hrs post drug application. Blood was collected into microvettes (SARSTEDT) containing EDTA tripotassium salt. Lymphocytes in blood samples were counted using a HEMAVET Multispecies Hematology System, HEMAVET HV950FS (Drew Scientific Inc.). Results are shown in the following figures below that depict lowered lymphocyte count after 5 hours (<1 number of lymphocytes 10^3/μL blood).

T1 sequence (P21453 whole entry): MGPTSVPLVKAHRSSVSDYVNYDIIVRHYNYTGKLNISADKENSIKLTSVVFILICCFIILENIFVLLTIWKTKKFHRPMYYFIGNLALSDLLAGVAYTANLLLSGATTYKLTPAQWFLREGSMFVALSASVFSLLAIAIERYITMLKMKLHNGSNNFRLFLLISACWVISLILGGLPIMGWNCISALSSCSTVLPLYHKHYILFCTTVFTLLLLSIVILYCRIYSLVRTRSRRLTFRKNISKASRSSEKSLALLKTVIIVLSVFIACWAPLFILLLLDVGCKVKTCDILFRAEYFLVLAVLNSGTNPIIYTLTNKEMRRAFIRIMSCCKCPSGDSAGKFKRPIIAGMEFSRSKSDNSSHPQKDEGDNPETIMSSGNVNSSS

Compound	activation at 5 µM (human S1P1 receptor) [%]	EC50 (human S1P1 receptor) [nM]	number of lymphocytes found in the blood (lymphocytes in blood; after 24 h of drug application)	number of lymphocytes found in the blood (lymphocytes in blood; after 72 h of drug application)	number of lymphocytes found in the blood (lymphocytes in blood; after 48 h of drug application)	number of lymphocytes found in the blood (lymphocytes in blood; after 5 h of drug application)
CCCCCCc1ccc(-c2ccc(CNCCCP(=O)(O)O)cc2-c2ccccc2)nc1 [Compound 1, (3-{[6-(5-Hexyl-pyridin-2-yl)-biphenyl-3-ylmethyl]-amino}-propyl)-phosphonic acid]	79.4	317				
CCCCCCc1ccc(-c2ccc(CNCCCP(=O)(O)O)nc2-c2cccs2)cc1 [Compound 2, (3-{[5-(4-Hexyl-phenyl)-6-thiophen-2-yl-pyridin-2-ylmethyl]-amino}-propyl)-phosphonic acid]	68.1	5.26	reduced			
CCCCCCc1ccc(-c2ccc(CNCCCP(=O)(O)O)nc2-c2ccc(F)s2)cc1 [Compound 3, (3-{[6-(5-Fluoro-thiophen-2-yl)-5-(4-hexyl-phenyl)-pyridin-2-ylmethyl]-amino}-propyl)-phosphonic acid]	111	25.1		reduced		
CCCCCCc1ccc(-c2ccc(CNCCCP(=O)(O)O)nc2-c2cccs2)cc1CCC [Compound 4, (3-{[5-(4-Hexyl-3-propyl-phenyl)-6-thiophen-2-yl-pyridin-2-ylmethyl]-amino}-propyl)-phosphonic acid]	79.1	7.72		reduced		
O=P(O)(O)CCCNCc1ccc(-c2ccc(CCCc3ccccc3)cc2)c(-c2cccs2)n1 [Compound 5, [3-({5-[4-(3-Phenyl-propyl)-phenyl]-6-thiophen-2-yl-pyridin-2-ylmethyl}-amino)-propyl]-phosphonic acid]	91.1	2.36			reduced	
CCCCCCc1ccc(-c2ccc(CNCCCP(=O)(O)O)nc2-c2ccsc2)cc1 [Compound 6, (3-{[5-(4-Hexyl-phenyl)-6-thiophen-3-yl-pyridin-2-ylmethyl]-amino}-propyl)-phosphonic acid]	76.9	9.19			reduced	
CCCCCCc1ccc(-c2ccc(CNCCCP(=O)(O)O)nc2-c2cocn2)cc1 [Compound 7, (3-{[5-(4-Hexyl-phenyl)-6-oxazol-4-yl-pyridin-2-ylmethyl]-amino}-propyl)-phosphonic acid]	86.1	0.87	reduced			
CCCCCCc1ccc(-c2ccc(CNCCCP(=O)(O)O)nc2-c2nccs2)cc1 [Compound 8, (3-{[5-(4-Hexyl-phenyl)-6-thiazol-2-yl-pyridin-2-ylmethyl]-amino}-propyl)-phosphonic acid]	89.3	6.52				
CCCCCCc1ccc(-c2ccc(CNCCCP(=O)(O)O)nc2-c2ccco2)cc1 [Compound 9, (3-{[6-Furan-2-yl-5-(4-hexyl-phenyl)-pyridin-2-ylmethyl]-amino}-propyl)-phosphonic acid]	88.6	0.44			reduced	
O=P(O)(O)CCCNCc1ccc(-c2ccc(CCC(F)(F)C(F)(F)C(F)(F)C(F)(F)F)cc2)c(-c2ccccc2)c1 [Compound 11, (3-{[4-(3,3,4,4,5,5,6,6,6-Nonafluoro-hexyl)-[1,1′;2′,1″]terphenyl-4′-ylmethyl]-amino}-propyl)-phosphonic acid]	71.8	416				
O=P(O)(O)CCCNCc1ccc(-c2ccc(CCCc3ccccc3)cc2)c(-c2ccccc2)c1 [Compound 12, (3-{[4-(3-Phenyl-propyl)-[1,1′;2′,1″]terphenyl-4′-ylmethyl]-amino}-propyl)-phosphonic acid]	64	625				
O=P(O)(O)CCCNCc1ccc(-c2ccc(CCCc3ccccc3)cc2)c(-c2cccc(Cl)c2)n1 [Compound 13, [3-({6-(3-Chloro-phenyl)-5-[4-(3-phenyl-propyl)-phenyl]-pyridin-2-ylmethyl}-amino)-propyl]-phosphonic acid]	64	2430				
O=P(O)(O)CCCNCc1ccc(-c2ccc(CCCc3ccccc3)cc2)c(-c2ccccc2)n1 [Compound 14, [3-({6-Phenyl-5-[4-(3-phenyl-propyl)-phenyl]-pyridin-2-ylmethyl}-amino)-propyl]-phosphonic acid]	86.6	93.8				reduced
CCCCCCc1ccc(-c2ccc(CNCCCP(=O)(O)O)nc2-c2ccccc2)cc1CCC [Compound 16, (3-{[5-(4-Hexyl-3-propyl-phenyl)-6-phenyl-pyridin-2-ylmethyl]-amino}-propyl)-phosphonic acid]	73.1	29.6				reduced
CCCCCOc1ccc(-c2ccc(CNCCCP(=O)(O)O)nc2-c2cccc(F)c2)cc1 [Compound 17, (3-{[6-(3-Fluoro-phenyl)-5-(4-pentyloxy-phenyl)-pyridin-2-ylmethyl]-amino}-propyl)-phosphonic acid]	83.9	2200				
CCCCCOc1ccc(-c2ccc(CNCCCP(=O)(O)O)nc2-c2ccc(F)cc2)cc1 [Compound 18, (3-{[6-(4-Fluoro-phenyl)-5-(4-pentyloxy-phenyl)-pyridin-2-ylmethyl]-amino}-propyl)-phosphonic acid]	104	472				
CCCCCOc1ccc(-c2ccc(CNCCCP(=O)(O)O)nc2-c2ccccc2)cc1 [Compound 19, (3-{[5-(4-Pentyloxy-phenyl)-6-phenyl-pyridin-2-ylmethyl]-amino}-propyl)-phosphonic acid]	95.5	358				
CCCCCCc1ccc(-c2ccc(CNCCCP(=O)(O)O)cc2-c2ccccc2)cn1 [Compound 20, (3-{[6-(6-Hexyl-pyridin-3-yl)-biphenyl-3-ylmethyl]-amino}-propyl)-phosphonic acid]	94.7	833				
CCCCCCCCc1ccc(-c2ccc(CNCCCP(=O)(O)O)cc2-c2ccccc2)cn1 [Compound 22, (3-{[6-(6-Octyl-pyridin-3-yl)-biphenyl-3-ylmethyl]-amino}-propyl)-phosphonic acid]	89.7	771				
CCCCCCc1ccc(-c2ccc(CNCCCP(=O)(O)O)nc2-c2ccccc2)cc1 [Compound 27, (3-{[5-(4-Hexyl-phenyl)-6-phenyl-pyridin-2-ylmethyl]-amino}-propyl)-phosphonic acid]	112	252				
